According to article PMC5789847, “Bismuth antimicrobial drugs serve as broad-spectrum metallo-β-lactamase inhibitors” (Nature Communications, 2018):

Assays:
[1] = design: method as in earlier work; details: treatment of peptic ulcer disease; cited from earlier work
NDM-HK [2] = assay: Resistance study: MPC and mutation frequency; format: cell-based, E. coli
NDM-HK [3] = assay: Murine peritonitis infection, mucin-assisted model; format: in vivo, BALB/c mice; details: 2% mucin
Text: All experiments were approved by, and performed in accordance with the guidelines approved by Committee on the Use of Live Animals in Teaching and Research (CULATR), the University of Hong Kong. A total of 6–8-week-old, female BALB/c mice (18–22 g) were purchased from Charles River Laboratories, Inc. and were used in all mouse studies. The animals were randomized to cages for each experiment.
In mucin-assisted model, for infection with NDM-1-positive bacteria, an overnight culture of NDM-HK was performed 1:250 dilution in 100 mL LB broth and re-grew to about OD600 0.3 in a 500-mL flask after 2.5 h shaking at 37 °C, 250 rpm. Bacterial pellets were collected and washed by PBS buffer three times for further use. Mice were infected intraperitoneally (i.p.) with a dose of 1 × 10^5 CFU of bacteria in PBS supplemented with 2% mucin. […] Twice-daily treatment via i.p. injection was continued throughout the whole experimental course. For the infection with NDM-1-negative bacteria, all the operations of infection were similar to those used for NDM-HK, except that NDM-HK PCV was used as infection-causing bacteria. […] Twice-daily treatment via i.p. injection was continued throughout the whole experimental course. Body weights and mice survival were monitored till endpoint of the experiment.

NDM-Rosetta OX = assay: Microdilution MIC assay; format: cell-based, E. coli; details: NDM-Rosetta OX
Description: For the test of NDM-Rosetta OX, the growth condition briefly goes as follow. Overnight culture of NDM-Rosetta was 1000-fold diluted into fresh LB medium and regrew to OD ~0.6. The overexpression of NDM-1 was induced by addition of 1 mM isopropyl β-D-1-thiogalactopyranoside (IPTG) for 4 h at 37 °C. The following susceptibility test was performed as described in the Microdilution MIC and MBC assay section in the methodology by using the resulting bacterial pellets with the supplementation of 200 µM IPTG.
(§1) Other procedures were kept strictly the same.

NDM-Rosetta = assay: Microdilution MIC assay; format: cell-based, E. coli
Text: as §1

NDM-BL21 = assay: Microdilution MIC assay; format: cell-based, E. coli
Text: as §1

NDM-1-C208A = NDM-1-C208A (Klebsiella pneumoniae, UniProt C7C422, C208A); assay: Residual enzyme activity of NDM-1 variant with CBS at IC50; format: biochemical; details: CBS at IC50 concentration, compared with WT NDM-1
NDM-1-C208A, sequence (C7C422 29-270 C208A): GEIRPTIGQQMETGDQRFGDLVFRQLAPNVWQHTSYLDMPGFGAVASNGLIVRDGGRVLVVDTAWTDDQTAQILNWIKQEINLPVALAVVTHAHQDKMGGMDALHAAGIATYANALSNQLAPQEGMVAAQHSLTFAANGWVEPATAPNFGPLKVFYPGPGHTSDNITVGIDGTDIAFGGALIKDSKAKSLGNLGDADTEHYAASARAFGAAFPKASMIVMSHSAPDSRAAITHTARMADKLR

NDM-HK (NDM-1^+) = assay: microbe, parasite or virus in culture; format: cell-based, E. coli
VIM-BL21 (VIM-2^+) = assay: microbe, parasite or virus in culture; format: cell-based, E. coli; details: VIM-BL21
IMP-BL21 (IMP-4^+) = assay: microbe, parasite or virus in culture; format: cell-based, E. coli; details: IMP-BL21
[4] = MER + compound, 256 µg mL^-1 set as MIC of Bi(III)

## colloidal bismuth subcitrate [CBS]
[1]
  intoxication at recommended dosage: No intoxication has been documented
NDM-HK [2]; MER with increasing CBS concentration
  observed mutation frequency: 1.31 × 10^−7 to 9.84 × 10^−10
NDM-HK [2]; ≥128 µg mL^−1 CBS
  MER MPC with CBS: 2 fold MIC
NDM-HK [3]; i.p. twice daily from 4 h post infection, CBS 20 mg kg^−1 (Fig. 4f), within 48 h
  protection from death, CBS monotherapy: failed to protect any of the mice from death
NDM-HK [3]; i.p. twice daily, MER + CBS 20 mg kg^−1 (Fig. 4f)
  mice survival rate, combination therapy of MER and CBS: 50%
NDM-Rosetta OX
  MIC of MER in combination with CBS at 16 µg mL-1: 128 µg/mL
  MIC of MER in combination with CBS at 32 µg mL-1: 128 µg/mL
  MIC of MER in combination with CBS at 256 µg mL-1: 32 µg/mL
NDM-Rosetta; NDM-1 positive E. coli Rosetta(DE3)
  decrease in MIC of MER in combination with CBS: 8 fold
NDM-Rosetta; NDM-1 positive E. coli Rosetta(DE3), CBS concentration not stated
  MIC of MER in combination with CBS: 4 µg/mL
NDM-Rosetta; NDM-Rosetta
  MIC of MER in combination with CBS at 16 µg mL-1: 8 µg/mL
  MIC of MER in combination with CBS at 32 µg mL-1: 4 µg/mL
  MIC of MER in combination with CBS at 256 µg mL-1: 4 µg/mL
NDM-BL21; NDM-1 positive E. coli BL21(DE3)
  decrease in MIC of MER in combination with CBS: 8 fold
NDM-BL21; NDM-1 positive E. coli BL21(DE3), CBS concentration not stated
  MIC of MER in combination with CBS: 2 µg/mL
NDM-BL21; NDM-BL21
  MIC of MER in combination with CBS at 16 µg mL-1: 8 µg/mL
  MIC of MER in combination with CBS at 32 µg mL-1: 4 µg/mL
  MIC of MER in combination with CBS at 256 µg mL-1: 2 µg/mL
NDM-1-C208A
  inhibitory effect on NDM-1-C208A: much reduced inhibitory effect
NDM-HK (NDM-1^+); NDM-1-positive NDM-HK, even at 256 µg mL^-1
  growth inhibition by CBS itself: no or minor growth inhibition
NDM-HK (NDM-1^+); NDM-HK
  MBC of Bi(III) compound/inhibitor alone: > 256 µg/mL
  MBC of MER in combination with compound at 32 µg mL^-1: 4 µg/mL
  MIC of Bi(III) compound/inhibitor alone: > 256 µg/mL
  MIC of MER in combination with CBS at 16 µg mL-1: 4 µg/mL
  MIC of MER in combination with CBS at 256 µg mL-1: 2 µg/mL
  MIC of MER in combination with compound at 32 µg mL^-1: 2 µg/mL
NDM-HK (NDM-1^+); NDM-HK, MER + compound, 256 µg mL^-1 set as MIC of Bi(III), 128 for Bi(NAC)3
  FICI: 0.250
VIM-BL21 (VIM-2^+)
  MBC of Bi(III) compound alone: > 256 µg/mL
  MBC of MER in combination with compound at 32 µg mL^-1: 1 µg/mL
  MIC of Bi(III) compound alone: > 256 µg/mL
  MIC of MER in combination with compound at 32 µg mL^-1: 0.5 µg/mL
VIM-BL21 (VIM-2^+); [4]
  FICI: 0.047
IMP-BL21 (IMP-4^+)
  MBC of Bi(III) compound alone: > 256 µg/mL
  MBC of MER in combination with compound at 32 µg mL^-1: 8 µg/mL
  MIC of Bi(III) compound alone: > 256 µg/mL
  MIC of MER in combination with compound at 32 µg mL^-1: 4 µg/mL
IMP-BL21 (IMP-4^+); [4]
  FICI: 0.187
